We go through 1 compound from US20070098801A1, “Particles shaped as platelets” (JANSSEN PHARMACEUTICA N.V., priority 2003, published 2007).

Structures are written as SMILES.

A short description of this series: Modulated differential scanning calorimetry (glass transition in the reversing signal). It is filed as physicochemical. How it is done:
Modulated Differential scanning calorimetry (MDSC) was performed to evaluate the thermal characteristics before and after melt extrusion with injection of pressurized carbon dioxide. […] A glass transition is observed as an inflection in the DSC profile when heat flow is plotted against temperature. Often, the glass transition is accompanied with an enthalpy relaxation, which is seen as an endothermic signal superimposed on the glass transition. Furthermore, these polymers can be hydrophilic and thus they may have adsorbed a significant amount of water. Evaporation of water is also an endothermic process. These signals make interpretation of the glass transition difficult. Therefore, MDSC was used so that the different thermal events could be elucidated with regard to the reversible and non-reversible transitions. […]
The measurements were performed using a TA Instruments modulated DSC Q1000 differential scanning calorimeter and thermal analysis controller (TA Instruments, New Castle, Del., USA). […] The samples were analysed in standard (open) aluminum as well as in hermetically sealed TA Instruments pans. […] The glass transition was measured at the inflection point as half the height of the shift in the heat flow signal (Tg 1/2 cp). […]
The samples measured in open pans as well as in hermetically sealed pans were analysed at least in duplicate.
Background: DSC measures the heat that a sample takes up or gives off during a temperature scan.

For `CCC(C)n1ncn(-c2ccc(N3CCN(c4ccc(OCC5COC(Cn6cncn6)(c6ccc(Cl)cc6Cl)O5)cc4)CC3)cc2)c1=O` (stereo not shown) [itraconazole], the “Melting enthalpy ΔH of pure itraconazole” value stood at 85 J/g.
